Experimental data from ChEMBL document CHEMBL4014283, “Structural insights of SmKDAC8 inhibitors: Targeting Schistosoma epigenetics through a combined structure-based 3D QSAR, in vitro and synthesis strategy” (Bioorg Med Chem, 2017).
The source made the active and inactive calls. The calls are words filed in the database; no cut-off is given here.

Legend:
[1] = molecular target: T1, Protein deacetylase HDAC6 (Homo sapiens, UniProt Q9UBN7); assay: Inhibition of human KDAC6 expressed in baculovirus expression system at 30 uM using FITC-Histone 4 acetylated peptide as substrate after 60 mins by microfluidic assay; conditions: 1 h, 30 µM
T1 sequence (Q9UBN7 whole entry): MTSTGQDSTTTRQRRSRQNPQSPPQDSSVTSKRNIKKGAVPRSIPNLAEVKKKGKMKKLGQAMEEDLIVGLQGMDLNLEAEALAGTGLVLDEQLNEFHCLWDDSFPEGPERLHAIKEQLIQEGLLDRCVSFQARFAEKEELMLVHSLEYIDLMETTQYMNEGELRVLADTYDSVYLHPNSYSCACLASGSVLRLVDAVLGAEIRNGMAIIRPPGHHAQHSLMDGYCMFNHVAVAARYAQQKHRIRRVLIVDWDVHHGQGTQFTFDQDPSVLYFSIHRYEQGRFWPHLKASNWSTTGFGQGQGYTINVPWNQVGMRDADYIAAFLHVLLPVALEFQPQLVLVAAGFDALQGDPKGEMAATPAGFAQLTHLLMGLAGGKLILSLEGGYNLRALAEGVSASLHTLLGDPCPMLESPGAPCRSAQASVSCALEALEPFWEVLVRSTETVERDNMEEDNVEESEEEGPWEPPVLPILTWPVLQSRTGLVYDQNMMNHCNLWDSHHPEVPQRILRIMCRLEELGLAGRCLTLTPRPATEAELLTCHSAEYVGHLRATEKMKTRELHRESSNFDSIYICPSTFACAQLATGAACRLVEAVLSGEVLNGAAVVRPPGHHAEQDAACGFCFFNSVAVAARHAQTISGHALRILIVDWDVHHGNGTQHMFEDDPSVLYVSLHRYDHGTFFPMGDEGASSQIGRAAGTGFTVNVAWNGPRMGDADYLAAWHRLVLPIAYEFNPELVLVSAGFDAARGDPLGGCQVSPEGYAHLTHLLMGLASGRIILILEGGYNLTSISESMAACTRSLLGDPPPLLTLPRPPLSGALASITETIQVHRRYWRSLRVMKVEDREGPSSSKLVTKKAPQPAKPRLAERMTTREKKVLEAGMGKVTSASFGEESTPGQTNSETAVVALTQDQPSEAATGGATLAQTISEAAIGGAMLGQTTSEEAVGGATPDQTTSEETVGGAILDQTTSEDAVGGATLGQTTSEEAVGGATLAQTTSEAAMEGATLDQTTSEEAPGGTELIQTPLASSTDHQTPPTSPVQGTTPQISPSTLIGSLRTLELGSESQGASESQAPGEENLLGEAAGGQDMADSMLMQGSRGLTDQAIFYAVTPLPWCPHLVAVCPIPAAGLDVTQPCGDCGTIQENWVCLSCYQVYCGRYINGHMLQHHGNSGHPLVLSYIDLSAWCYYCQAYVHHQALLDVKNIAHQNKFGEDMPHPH

Histone deacetylase 8 = molecular target: T2, Histone deacetylase 8 (Homo sapiens, UniProt Q9BY41); assay: (§1) Inhibition of full length human C-terminal His-tagged KDAC8 expressed in baculovirus expression system at 30 uM using (FAM)-labeled peptide as substrate after 60 mins by microfluidic assay relative to control; conditions: 1 h, 30 µM
T2 sequence (Q9BY41 whole entry): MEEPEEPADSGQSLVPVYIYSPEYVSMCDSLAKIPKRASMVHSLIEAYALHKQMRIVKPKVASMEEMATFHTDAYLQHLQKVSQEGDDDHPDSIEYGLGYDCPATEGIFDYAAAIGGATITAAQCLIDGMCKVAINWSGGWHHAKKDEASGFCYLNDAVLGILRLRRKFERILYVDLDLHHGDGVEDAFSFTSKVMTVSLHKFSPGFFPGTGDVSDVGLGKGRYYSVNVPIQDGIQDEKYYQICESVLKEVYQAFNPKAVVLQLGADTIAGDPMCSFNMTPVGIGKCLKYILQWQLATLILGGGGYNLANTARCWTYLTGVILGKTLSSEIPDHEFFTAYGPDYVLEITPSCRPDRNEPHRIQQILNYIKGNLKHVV

Histone deacetylase 1 = Histone deacetylase 1 (Homo sapiens, UniProt Q13547); assay: Inhibition of full length human C-terminal FLAG/His-tagged KDAC1 expressed in baculovirus expression system at 30 uM using substrate A after 60 mins by microfluidic assay relative to control; conditions: 1 h, 30 µM
Sequence of Histone deacetylase 1 (Q13547 whole entry, the tested form may be a part): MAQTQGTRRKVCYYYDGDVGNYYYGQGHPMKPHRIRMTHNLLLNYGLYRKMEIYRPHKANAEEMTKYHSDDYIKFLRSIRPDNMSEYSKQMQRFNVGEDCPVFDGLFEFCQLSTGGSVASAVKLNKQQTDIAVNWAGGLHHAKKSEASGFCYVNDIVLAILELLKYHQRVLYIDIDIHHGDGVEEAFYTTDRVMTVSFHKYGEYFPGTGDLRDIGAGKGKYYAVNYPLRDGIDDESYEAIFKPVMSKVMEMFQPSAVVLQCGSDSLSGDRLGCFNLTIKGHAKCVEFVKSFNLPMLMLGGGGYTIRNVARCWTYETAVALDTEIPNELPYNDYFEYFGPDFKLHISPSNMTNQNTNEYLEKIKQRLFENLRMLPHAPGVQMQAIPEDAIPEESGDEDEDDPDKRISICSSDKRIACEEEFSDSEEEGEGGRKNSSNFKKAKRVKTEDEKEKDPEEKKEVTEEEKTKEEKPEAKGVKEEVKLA

[2] = molecular target: Histone deacetylase 3/Nuclear receptor corepressor 2 (HDAC3/NCoR2) (Homo sapiens, UniProt O15379+Q9Y618); assay: (§2) Inhibition of full length human C-terminal His-tagged KDAC3/N-terminal GST-tagged human NCOR2 (395 to 489 residues) expressed in baculovirus expression system at 30 uM using FITC-p53 acetylated peptide as substrate after 60 mins by microfluidic assay; conditions: 1 h, 30 µM
Sequence of Histone deacetylase 3/Nuclear receptor corepressor 2 (HDAC3/NCoR2) (O15379 whole entry, the tested form may be a part): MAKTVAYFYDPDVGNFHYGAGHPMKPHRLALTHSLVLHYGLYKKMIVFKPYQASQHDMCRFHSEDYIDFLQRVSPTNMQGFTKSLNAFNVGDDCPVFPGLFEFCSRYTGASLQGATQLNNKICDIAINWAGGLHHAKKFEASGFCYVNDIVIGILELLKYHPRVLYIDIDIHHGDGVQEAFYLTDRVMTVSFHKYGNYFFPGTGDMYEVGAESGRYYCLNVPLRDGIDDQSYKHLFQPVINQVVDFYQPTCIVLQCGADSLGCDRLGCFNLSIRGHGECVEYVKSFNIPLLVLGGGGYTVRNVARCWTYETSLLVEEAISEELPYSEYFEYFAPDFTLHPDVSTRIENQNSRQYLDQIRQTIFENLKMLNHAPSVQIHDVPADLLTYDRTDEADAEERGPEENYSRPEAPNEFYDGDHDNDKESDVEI
Sequence of Histone deacetylase 3/Nuclear receptor corepressor 2 (HDAC3/NCoR2) (Q9Y618 whole entry, the tested form may be a part): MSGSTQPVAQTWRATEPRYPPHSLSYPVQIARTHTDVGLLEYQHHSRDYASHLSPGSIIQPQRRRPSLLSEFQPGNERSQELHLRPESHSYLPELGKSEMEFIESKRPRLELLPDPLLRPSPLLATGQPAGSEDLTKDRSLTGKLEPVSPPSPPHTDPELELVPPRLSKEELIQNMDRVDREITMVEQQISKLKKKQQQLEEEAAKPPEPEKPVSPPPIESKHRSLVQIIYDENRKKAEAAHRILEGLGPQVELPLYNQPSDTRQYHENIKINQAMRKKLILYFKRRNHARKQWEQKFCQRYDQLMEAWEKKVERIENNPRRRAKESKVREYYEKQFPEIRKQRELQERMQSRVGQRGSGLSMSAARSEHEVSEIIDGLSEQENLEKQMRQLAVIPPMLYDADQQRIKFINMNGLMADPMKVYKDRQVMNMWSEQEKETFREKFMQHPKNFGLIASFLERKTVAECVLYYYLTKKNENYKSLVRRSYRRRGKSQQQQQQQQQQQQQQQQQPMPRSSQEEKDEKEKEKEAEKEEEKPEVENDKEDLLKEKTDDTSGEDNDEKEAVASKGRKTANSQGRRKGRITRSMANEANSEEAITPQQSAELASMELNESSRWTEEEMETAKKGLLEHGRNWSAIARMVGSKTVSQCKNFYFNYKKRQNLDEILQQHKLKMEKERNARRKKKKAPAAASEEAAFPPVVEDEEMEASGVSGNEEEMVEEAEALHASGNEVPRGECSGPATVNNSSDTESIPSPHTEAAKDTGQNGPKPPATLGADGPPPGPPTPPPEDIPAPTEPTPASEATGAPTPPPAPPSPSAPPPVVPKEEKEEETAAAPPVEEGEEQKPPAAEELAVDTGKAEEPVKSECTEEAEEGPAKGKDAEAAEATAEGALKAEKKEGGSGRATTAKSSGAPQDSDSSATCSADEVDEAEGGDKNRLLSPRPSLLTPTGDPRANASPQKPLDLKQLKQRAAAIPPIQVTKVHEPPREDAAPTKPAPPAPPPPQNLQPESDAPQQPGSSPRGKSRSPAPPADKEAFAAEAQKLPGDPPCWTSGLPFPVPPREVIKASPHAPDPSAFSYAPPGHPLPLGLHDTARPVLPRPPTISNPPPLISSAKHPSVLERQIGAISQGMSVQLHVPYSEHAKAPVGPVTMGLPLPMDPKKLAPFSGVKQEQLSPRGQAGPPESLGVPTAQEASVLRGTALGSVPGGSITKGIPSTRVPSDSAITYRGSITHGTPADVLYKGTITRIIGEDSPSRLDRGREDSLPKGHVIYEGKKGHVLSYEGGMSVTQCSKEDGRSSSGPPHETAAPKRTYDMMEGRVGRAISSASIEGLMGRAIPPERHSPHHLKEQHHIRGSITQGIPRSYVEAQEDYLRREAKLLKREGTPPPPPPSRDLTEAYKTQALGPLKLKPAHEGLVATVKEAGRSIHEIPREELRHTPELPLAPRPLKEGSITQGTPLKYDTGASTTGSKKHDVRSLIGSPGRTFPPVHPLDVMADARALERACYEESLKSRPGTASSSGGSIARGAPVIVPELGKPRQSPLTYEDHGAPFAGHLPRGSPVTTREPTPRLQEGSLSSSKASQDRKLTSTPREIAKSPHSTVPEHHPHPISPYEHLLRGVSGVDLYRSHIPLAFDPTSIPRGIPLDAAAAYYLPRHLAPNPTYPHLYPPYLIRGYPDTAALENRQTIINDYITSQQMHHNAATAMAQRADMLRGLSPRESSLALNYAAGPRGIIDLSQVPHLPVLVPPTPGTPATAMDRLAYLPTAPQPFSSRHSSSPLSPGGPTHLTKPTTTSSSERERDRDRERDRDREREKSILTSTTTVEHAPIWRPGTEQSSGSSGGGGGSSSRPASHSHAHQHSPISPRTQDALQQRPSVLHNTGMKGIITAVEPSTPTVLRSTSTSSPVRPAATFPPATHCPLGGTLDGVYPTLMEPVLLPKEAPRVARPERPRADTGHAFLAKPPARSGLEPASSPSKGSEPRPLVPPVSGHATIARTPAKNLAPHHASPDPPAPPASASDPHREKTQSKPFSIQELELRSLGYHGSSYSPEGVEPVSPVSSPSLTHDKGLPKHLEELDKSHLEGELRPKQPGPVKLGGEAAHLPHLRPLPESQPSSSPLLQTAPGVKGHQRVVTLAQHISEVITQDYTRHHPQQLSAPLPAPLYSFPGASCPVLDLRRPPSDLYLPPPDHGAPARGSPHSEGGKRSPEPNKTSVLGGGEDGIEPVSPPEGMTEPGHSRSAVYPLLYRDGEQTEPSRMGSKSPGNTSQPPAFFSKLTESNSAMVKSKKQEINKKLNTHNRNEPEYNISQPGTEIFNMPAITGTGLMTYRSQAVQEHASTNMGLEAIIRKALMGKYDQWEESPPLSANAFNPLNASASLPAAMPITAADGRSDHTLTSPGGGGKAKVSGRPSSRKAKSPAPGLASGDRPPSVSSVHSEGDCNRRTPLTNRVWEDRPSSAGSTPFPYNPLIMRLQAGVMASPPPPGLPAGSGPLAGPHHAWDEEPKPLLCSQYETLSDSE

[3] = molecular target: T3, Histone deacetylase 8 (Schistosoma mansoni) (UniProt A5H660); assay: Inhibition of Schistosoma mansoni KDAC8 at 30 uM using (FAM)-labeled peptide as substrate after 60 mins by microfluidic assay
T3 sequence (whole entry): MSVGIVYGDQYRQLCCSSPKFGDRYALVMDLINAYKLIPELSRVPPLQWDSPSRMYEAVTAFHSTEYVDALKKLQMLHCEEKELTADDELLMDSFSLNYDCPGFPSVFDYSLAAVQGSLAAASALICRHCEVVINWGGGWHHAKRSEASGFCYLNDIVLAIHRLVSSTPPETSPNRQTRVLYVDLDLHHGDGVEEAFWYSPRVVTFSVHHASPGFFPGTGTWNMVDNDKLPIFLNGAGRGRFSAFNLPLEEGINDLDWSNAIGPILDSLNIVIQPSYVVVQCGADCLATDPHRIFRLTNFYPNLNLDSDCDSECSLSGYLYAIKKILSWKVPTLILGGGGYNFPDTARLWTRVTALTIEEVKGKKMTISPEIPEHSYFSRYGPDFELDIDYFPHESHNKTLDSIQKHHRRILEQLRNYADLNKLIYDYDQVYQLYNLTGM

[4] = molecular target: T4, KDAC8 (histone deacetylase 8) (Homo sapiens, UniProt Q9BY41); assay: as §1; conditions: probe (FAM)-labeled peptide
T4 sequence (Q9BY41 whole entry): T2 sequence (Q9BY41 whole entry)

[5] = molecular target: KDAC3/NCOR2 (histone deacetylase 3/nuclear receptor corepressor 2 complex) (Homo sapiens, UniProt O15379); assay: as §2; conditions: probe FITC-p53 acetylated peptide
Sequence of KDAC3/NCOR2 (histone deacetylase 3/nuclear receptor corepressor 2 complex) (O15379 whole entry): as the sequence (O15379 whole entry, the tested form may be a part) above
Sequence of KDAC3/NCOR2 (histone deacetylase 3/nuclear receptor corepressor 2 complex) (Q9Y618 whole entry, further chain): as the sequence (Q9Y618 whole entry, the tested form may be a part) above

SMILES: CC(=O)OCCn1c([N+](=O)[O-])cnc1/C=[N+](\[O-])C1CCCCC1
- inhibition (INH) [1]: Not Active
- inhibition (INH) (Histone deacetylase 8): Not Active
- inhibition (INH) (Histone deacetylase 1): Not Active
- inhibition (INH) [2]: Not Active
- inhibition [3]: 12%

SMILES: O=C(O)c1ccccc1C(=O)Nc1ccccc1[N+](=O)[O-]
- inhibition (INH) [1]: Not Active
- inhibition (INH) (Histone deacetylase 8): Not Active
- inhibition (INH) (Histone deacetylase 1): Not Active
- inhibition (INH) [2]: Not Active
- inhibition [3]: 6%

SMILES: S=C(SCc1cc(Cl)cc2c1OCOC2)N1CCSCC1
- inhibition (INH) [1]: Not Active
- inhibition at 1 h, 30 µM [4]: 4%
- inhibition (INH) (Histone deacetylase 1): Not Active
- inhibition (INH) [2]: Not Active
- inhibition [3]: inactive

SMILES: NC(=O)c1ccccc1OCC(=O)Nc1ccc(Cl)c(Cl)c1
- inhibition (INH) [1]: Not Active
- inhibition (INH) (Histone deacetylase 8): Not Active
- inhibition (INH) (Histone deacetylase 1): Not Active
- inhibition at 1 h, 30 µM [5]: 6%
- inhibition [3]: 2%

SMILES: CCOP(=O)(OCC)/C(C#N)=C/c1ccc([N+](=O)[O-])cc1
- inhibition (INH) [1]: Not Active
- inhibition (INH) (Histone deacetylase 8): Not Active
- inhibition (INH) (Histone deacetylase 1): Not Active
- inhibition (INH) [2]: Not Active
- inhibition [3]: 2%

SMILES: Cc1cc(-n2cnc3c(O)ncnc32)ccc1N
- inhibition (INH) [1]: Not Active
- inhibition (INH) (Histone deacetylase 8): Not Active
- inhibition (INH) (Histone deacetylase 1): Not Active
- inhibition (INH) [2]: Not Active
- inhibition [3]: 1%

SMILES: O=C(NCc1ccco1)Nc1cccc([N+](=O)[O-])c1
- inhibition (INH) [1]: Not Active
- inhibition at 1 h, 30 µM [4]: 7%
- inhibition (INH) (Histone deacetylase 1): Not Active
- inhibition at 1 h, 30 µM [5]: 7%
- inhibition [3]: 16%

SMILES: Cc1ccc(Nc2nnc(S)s2)cc1F
- inhibition (INH) [1]: Not Active
- inhibition (INH) (Histone deacetylase 8): Not Active
- inhibition (INH) (Histone deacetylase 1): Not Active
- inhibition at 1 h, 30 µM [5]: 2%
- inhibition [3]: 8%

SMILES: Nc1ccccc1Sc1cc(Cl)nnc1Cl
- inhibition (INH) [1]: Not Active
- inhibition (INH) (Histone deacetylase 8): Not Active
- inhibition (INH) (Histone deacetylase 1): Not Active
- inhibition (INH) [2]: Not Active
- inhibition [3]: inactive

SMILES: CC(C)NCC1CCc2cc(CO)c([N+](=O)[O-])cc2N1 (stereo not given) [OXAMNIQUINE]
- inhibition (INH) [1]: Not Active
- inhibition (INH) (Histone deacetylase 8): Not Active
- inhibition (INH) (Histone deacetylase 1): Not Active
- inhibition (INH) [2]: Not Active
- inhibition [3]: inactive

SMILES: CCOC(=O)c1cc2c(OC)c(OC)ccc2c2ncc(C#N)c(O)c12
- inhibition (INH) [1]: Not Active
- inhibition at 1 h, 30 µM [4]: 15%
- inhibition (INH) (Histone deacetylase 1): Not Active
- inhibition at 1 h, 30 µM [5]: 2%
- inhibition [3]: inactive

SMILES: Clc1ccc(Nc2nnc(-c3ccc4c(c3)OCO4)o2)cc1
- inhibition (INH) [1]: Not Active
- inhibition (INH) (Histone deacetylase 8): Not Active
- inhibition (INH) (Histone deacetylase 1): Not Active
- inhibition (INH) [2]: Not Active
- inhibition [3]: 10%

SMILES: NS(=O)(=O)c1ccc(Nc2ccccc2)c([N+](=O)[O-])c1
- inhibition (INH) [1]: Not Active
- inhibition (INH) (Histone deacetylase 8): Not Active
- inhibition (INH) (Histone deacetylase 1): Not Active
- inhibition at 1 h, 30 µM [5]: 1%
- inhibition [3]: 12%

SMILES: O=C(OCC(O)COC(=O)c1cccnc1)c1cccnc1
- inhibition (INH) [1]: Not Active
- inhibition (INH) (Histone deacetylase 8): Not Active
- inhibition (INH) (Histone deacetylase 1): Not Active
- inhibition (INH) [2]: Not Active
- inhibition [3]: inactive

SMILES: O=C1c2ccccc2C2=C3C(O)=NN=C3CCN12
- inhibition (INH) [1]: Not Active
- inhibition at 1 h, 30 µM [4]: 5%
- inhibition (INH) (Histone deacetylase 1): Not Active
- inhibition at 1 h, 30 µM [5]: 1%
- inhibition [3]: inactive

SMILES: Cc1c(COC(=O)N(C)C)c(COC(=O)NC(C)C)c2n1CS(=O)(=O)C2
- inhibition (INH) [1]: Not Active
- inhibition at 1 h, 30 µM [4]: 7%
- inhibition (INH) (Histone deacetylase 1): Not Active
- inhibition at 1 h, 30 µM [5]: 3%
- inhibition [3]: inactive

SMILES: C=CCN=C(S)Nc1cccc([N+](=O)[O-])c1
- inhibition (INH) [1]: Not Active
- inhibition (INH) (Histone deacetylase 8): Not Active
- inhibition (INH) (Histone deacetylase 1): Not Active
- inhibition at 1 h, 30 µM [5]: 3%
- inhibition [3]: 2%

SMILES: Cc1cc(NC(=O)Nc2cc(F)ccc2F)no1
- inhibition (INH) [1]: Not Active
- inhibition (INH) (Histone deacetylase 8): Not Active
- inhibition (INH) (Histone deacetylase 1): Not Active
- inhibition (INH) [2]: Not Active
- inhibition [3]: inactive

SMILES: COC(=O)C(=Cc1ccccc1[N+](=O)[O-])C(=O)OC
- inhibition (INH) [1]: Not Active
- inhibition (INH) (Histone deacetylase 8): Not Active
- inhibition (INH) (Histone deacetylase 1): Not Active
- inhibition at 1 h, 30 µM [5]: 3%
- inhibition [3]: 3%

SMILES: CCOC(=O)C1=C(N)N=C(N)C1=Nc1ccc(OC)cc1
- inhibition (INH) [1]: Not Active
- inhibition (INH) (Histone deacetylase 8): Not Active
- inhibition (INH) (Histone deacetylase 1): Not Active
- inhibition at 1 h, 30 µM [5]: 7%
- inhibition [3]: inactive
